Assay results from PMC10291552, “Computational Design, Synthesis, and Biological Evaluation of Diimidazole Analogues Endowed with Dual PCSK9/HMG-CoAR-Inhibiting Activity” (Journal of Medicinal Chemistry, 2023).
≈ marks a conversion by molar mass, not a printed value. Where “and” joins values, the source holds several entries; their conditions need not be identical. Equal values may be shown once. Read-outs that look alike come from different tables or passages of the source. Blank lines part the entries; values can stand above or below the compound they belong to.

Tests used:
[1] = Metabolic stability in human liver microsomes (with UDPGA); settings: for Cli: human liver microsomes 0.5 mg/mL, 5 μM, cofactors + UDPGA (Phase II stability)
Protocol: (§1) After the pre-incubation period, the reaction was started by adding the cofactor mixture (NADP, Glc6P, and Glc6P-DH in 2% sodium bicarbonate) and UDPGA. Samples (25 μL) were taken at times of 0, 10, 20, 30, 45, and 60 min and then mixed with 150 μL of ACN to stop the reaction. After centrifugation, the supernatants were analyzed by LC–MS/MS. A control sample without cofactors was included in the assay in order to check the stability of the test compounds in the matrix after 60 min. 7-Ethoxycoumarin (7-EC) and 7-hydroxycoumarin (7-OHC) were contemporarily tested as reference standards for the Phase I and Phase II reactions, respectively.

[2] = Metabolic stability in mouse liver microsomes (with UDPGA); settings: for Cli: mouse liver microsomes 0.5 mg/mL, 5 μM, cofactors + UDPGA (Phase II stability)
Protocol: as §1

[3] = molecular target: T1, HMG-CoAR (catalytic domain) (Homo sapiens, UniProt P04035); assay: HMG-CoAR activity assay (Sigma kit, NADPH oxidation at 340 nm); format: biochemical; settings: 10–500 μM tested, 37 °C
T1 construct: and finally, HMG-CoAR (catalytic domain) (2 μL); purchased Sigma Aldrich
T1 sequence (P04035 426-888 limits assumed): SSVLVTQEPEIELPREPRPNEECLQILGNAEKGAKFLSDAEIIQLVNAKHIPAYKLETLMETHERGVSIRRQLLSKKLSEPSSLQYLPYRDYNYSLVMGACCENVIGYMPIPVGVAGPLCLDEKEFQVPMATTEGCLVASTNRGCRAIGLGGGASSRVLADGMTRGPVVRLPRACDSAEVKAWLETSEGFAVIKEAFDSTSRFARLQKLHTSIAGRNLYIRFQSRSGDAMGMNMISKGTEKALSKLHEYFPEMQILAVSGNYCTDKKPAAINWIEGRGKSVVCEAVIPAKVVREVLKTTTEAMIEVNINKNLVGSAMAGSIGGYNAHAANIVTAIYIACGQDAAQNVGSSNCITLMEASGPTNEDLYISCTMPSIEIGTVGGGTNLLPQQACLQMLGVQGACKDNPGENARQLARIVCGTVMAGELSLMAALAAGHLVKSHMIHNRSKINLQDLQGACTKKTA
Protocol: The experiments were carried out following the manufacturer’s instructions and optimized protocol.[43] The assay buffer, NADPH, substrate solution, and HMG-CoAR were provided in the HMG-CoAR Assay Kit (Sigma Aldrich SRL, Milan, Italy). The experiments were carried out following the manufacturer’s instructions at 37 °C. In particular, each reaction (200 μL) was prepared adding the reagents in the following order: 1× assay buffer, a 10–500 μM dose of sonicated Dim analogues or vehicle (C), NADPH (4 μL), the substrate solution (12 μL), and finally, HMG-CoAR (catalytic domain) (2 μL). Subsequently, the samples were mixed, and the absorbance at 340 nm was read by a microplate reader (Synergy H1, Winooski, VT, USA) at times of 0 and 10 min. The HMGCoAR-dependent oxidation of NADPH and the inhibition properties of the peptides were measured by absorbance reduction, which is directly proportional to enzyme activity.

PCSK9/LDLR [4] = molecular target: T2, PCSK9/LDLR (Homo sapiens, UniProt Q8NBP7); assay: In vitro PCSK9-LDLR binding assay (CircuLex/CycLex kit); settings: for IC50: mean ± SD, three independent experiments, Hill slope fixed at −1
T2 construct: purchased CircuLex (CycLex Co., Nagano, Japan)
Protocol: Diimidazole analogues (0.1–1 × 10^6 nM) were tested using the in vitro PCSK9-LDLR binding assay (CycLex Co., Nagano, Japan) following the manufacturer’s instructions and with the conditions already optimized.[15] Briefly, the plates were pre-coated with a recombinant LDLR-AB domain containing the binding site of PCSK9. Before starting the assay, the tested analogues and/or the vehicle in DMSO were sonicated at 37 °C, diluted in the reaction buffer, and added in microcentrifuge tubes. Afterward, the reaction mixtures were added in each well of the microplate, and the reaction was started by adding His-tagged PCSK9 solution (3 μL). The microplate was allowed to incubate for 2 h at room-temperature (RT) shaking at 300 rpm on an orbital microplate shaker. Subsequently, the wells were washed 4 times with the wash buffer. After the last wash, the biotinylated anti-His-tag monoclonal antibody (100 μL) was added and incubated at RT for 1 h shaking at 300 rpm. After incubation, the wells were washed 4 times with wash buffer. After the last wash, 100 μL of HRP-conjugated streptavidin were added, and the plate was incubated for 20 min at RT. After incubation, the wells were washed 4 times with wash buffer. Finally, the substrate reagent (tetra-methylbenzidine) was added, and the plate was incubated for 10 min at RT shaking at ca. 300 rpm. The reaction was stopped with 2.0 M sulfuric acid, and the absorbance at 450 nm was measured using a Synergy H1 fluorescent plate reader (Winooski, VT, USA).
All the data sets were checked for normal distribution by D’Agostino and Pearson tests. Since they are all normally disturbed with p values of […], we proceeded with statistical analyses of one-way ANOVA followed by Tukey’s post hoc test using Graphpad Prism 9 (San Diego, CA, USA). Values were reported as means ± s.d.; p values of <0.05 were considered to be significant. The IC50 values of samples inhibiting PCSK9-LDLR binding were evaluated by using the log(inhibitor) vs response model of GraphPad Prism 9 (San Diego, CA, USA). This model assumes that the dose–response curves has a standard slope, equal to a Hill slope (or slope factor) of −1.0. This is the slope expected when a ligand binds to a receptor following the law of mass action and is the slope expected of a dose–response curve when the second messenger created by receptor stimulation binds to its receptor by the law of mass action (https://graphpad.com/guides/prism/latest/curvefitting/reg_dr_inhibit.htm).

Solubility in PBS pH 7.4 = format: physicochemical; settings: PBS buffer, pH 7.4, PBS, 37 °C
Protocol: Solubility was tested after incubation of the test item at 200 μM and 500 μM in PBS buffer pH 7.4 starting from an initial DMSO solution of Dim22 100 mM. Samples in duplicates were incubated at 37 °C for 90 min, were then centrifuged at 12500 rpm for 5 min. Supernatants were analyzed in LC/MS together with a solution of the compound in ACN.

PCSK9/LDLR [5] = molecular target: T2, PCSK9/LDLR; settings: cited from earlier work
[6] = molecular target: T1, HMG-CoAR (catalytic domain); design: method as in doi:10.1016/j.jff.2017.02.009; settings: cited from earlier work

T2 sequence (Q8NBP7 153-692): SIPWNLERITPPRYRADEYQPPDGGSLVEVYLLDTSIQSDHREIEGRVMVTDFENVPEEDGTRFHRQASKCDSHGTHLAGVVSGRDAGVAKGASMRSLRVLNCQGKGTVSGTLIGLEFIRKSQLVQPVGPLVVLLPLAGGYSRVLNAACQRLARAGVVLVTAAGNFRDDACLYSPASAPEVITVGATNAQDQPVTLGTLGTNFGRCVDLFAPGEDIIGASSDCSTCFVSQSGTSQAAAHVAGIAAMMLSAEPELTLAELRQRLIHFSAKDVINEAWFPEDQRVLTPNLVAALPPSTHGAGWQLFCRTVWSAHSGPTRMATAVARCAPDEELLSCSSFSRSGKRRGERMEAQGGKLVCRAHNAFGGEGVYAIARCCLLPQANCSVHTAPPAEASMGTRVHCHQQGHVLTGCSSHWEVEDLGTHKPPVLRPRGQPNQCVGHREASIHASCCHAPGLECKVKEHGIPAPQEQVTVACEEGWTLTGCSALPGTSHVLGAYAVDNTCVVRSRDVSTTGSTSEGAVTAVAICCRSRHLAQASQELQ
T2 sequence (Q8NBP7 31-152 limits assumed): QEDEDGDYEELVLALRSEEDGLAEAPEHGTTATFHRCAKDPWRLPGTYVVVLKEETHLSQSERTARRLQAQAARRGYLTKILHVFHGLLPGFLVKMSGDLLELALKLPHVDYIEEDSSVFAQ

Cli [1]: 46.1 μL/min/mg protein
Cli [2]: 290.9 μL/min/mg protein
Compound: CCOc1ccc2ccc(=O)oc2c1 [7-EC, 7-Ethoxycoumarin, reference compound]

Cli [1]: 390.0 μL/min/mg protein
Cli [2]: 533.3 μL/min/mg protein
Compound: O=c1ccc2ccc(O)cc2o1 [7-OHC, 7-hydroxycoumarin, reference compound]

Compound: CNCCCCCn1cncc1-c1ncc(-c2ccc3ccccc3c2)n1CCCC(C)(C)C [Dim2, 5-(1-(4,4-Dimethylpentyl)-5-(naphthalen-2-yl)-1H,3′H-[2,4′-biimidazol]-3′-yl)-N-methylpentan-1-amine]
IC50 [3]: 40500 ± 15200 nM
IC50 (PCSK9/LDLR [4]): 1990 ± 1650 nM
PCSK9 activity, times less active than Dim16 (PCSK9/LDLR [4]; ratio versus Dim16): about 2500

Compound: CNCCCCCn1cncc1-c1ncc(-c2ccc3ccccc3c2)n1CC1CCCCC1 [Dim21, 5-(1-(Cyclohexylmethyl)-5-(naphthalen-2-yl)-1H,3′H-[2,4′-biimidazol]-3’-yl)-N-methylpentan-1-amine]
IC50 [3]: 38400 ± 12700 nM
IC50 (PCSK9/LDLR [4]): 4500 ± 500 nM

Compound: CNCCCCCn1c(-c2ncc(-c3ccc4ccccc4c3)n2CC2CCCCC2)cnc1I [Dim22, 5-(1-(Cyclohexylmethyl)-2′-iodo-5-(naphthalen-2-yl)-1H,3′H-[2,4′-biimidazol]-3′-yl)-N-methylpentan-1-amine]
IC50 [3]: 36200 ± 5980 nM
Cli [1]: 51.5 μL/min/mg protein
clearance classification ([1]; human liver microsomes, classification of Table S4): medium–high
non-NADPH-dependent part of the observed metabolism ([1]; humans): 50%
NADPH dependence of the observed metabolism ([2]; mice): NADPH-dependent
Cli [2]: 57.0 μL/min/mg protein
clearance classification ([2]; mouse liver microsomes, classification of Table S4): medium–high
solubility at 90 min (Solubility in PBS pH 7.4): ~10 µM (≈ 5.82 µg/mL)
solubility at 1.5 h (Solubility in PBS pH 7.4; 90 min): 5.8 µg/mL (≈ 9.97 µM)
IC50 (PCSK9/LDLR [4]): 1990 ± 2860 nM

Compound: C#Cc1ncc(-c2ncc(-c3ccc4ccccc4c3)n2CC2CCCCC2)n1CCCCCNC [Dim23, 5-(1-(Cyclohexylmethyl)-2′-ethynyl-5-(naphthalen-2-yl)-1H,3′H-[2,4′-biimidazol]-3′-yl)-N-methylpentan-1-mine]
HMG-CoAR activity IC50 [3]: not active
IC50 (PCSK9/LDLR [4]): 1180 ± 1060 nM

Compound: Cn1cnc(-c2ncc(-c3nc(-c4ncc(-c5ccccc5)n4C)cn3C)n2C)c1 [MeIm]
IC50 value (PCSK9–LDLR interaction) (PCSK9/LDLR [5]; in words): low-micromolar range

Compound: CNCCCCCn1cncc1-c1nc(-c2ncc(-c3ccc(OC)cc3)n2C)cn1CCc1ccccc1 [RIm14]
affinity with PCSK9 (PCSK9/LDLR [5]; in words): low micromolar affinity

Compound: CNCCCCCn1cncc1-c1nc(-c2ncc(-c3ccc(OC)cc3)n2C)cn1Cc1ccccc1 [Rim13]
affinity with PCSK9 (PCSK9/LDLR [5]; in words): low micromolar affinity
IC50 (PCSK9/LDLR [5]; read-out: PCSK9/LDLR interaction IC50): 1600 nM and ~1000 nM

Compound: LILPKHSDAD [P5, peptide P5 derived from lupin proteins]
IC50 (PCSK9/LDLR [5]; read-out: PCSK9/LDLR PPI IC50): 1600 nM
IC50 [6]: 147000 nM
